In the test the target is T1, human recombinant ALK1 (GST fused to ALK1 intracellular domain [His142-Gln503]) (Homo sapiens, UniProt P37023).
T1 construct: GST fused to ALK1 intracellular domain [His142-Gln503]; made in house
T1 sequence (P37023 142-503): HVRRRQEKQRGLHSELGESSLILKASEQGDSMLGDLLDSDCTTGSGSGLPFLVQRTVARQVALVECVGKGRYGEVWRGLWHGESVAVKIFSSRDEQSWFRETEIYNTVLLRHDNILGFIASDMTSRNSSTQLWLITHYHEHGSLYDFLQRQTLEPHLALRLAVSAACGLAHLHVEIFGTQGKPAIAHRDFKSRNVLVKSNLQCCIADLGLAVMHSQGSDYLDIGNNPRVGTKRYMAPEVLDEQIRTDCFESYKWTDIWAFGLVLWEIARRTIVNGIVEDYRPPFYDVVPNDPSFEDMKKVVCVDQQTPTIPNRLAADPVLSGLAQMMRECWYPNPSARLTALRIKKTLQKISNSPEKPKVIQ
The test is described as follows: ALK1-Kinase Flashplate-Assay. To be noted: 0.5 μM ATP, biotinylated α-casein substrate; read-out: Assay 1 (ALK1-Kinase Flashplate-Assay IC50 class). It counts as biochemical. The text has this: Biological Assay 1: ALK1-Kinase Flashplate-Assay
ALK1 phosphorylates serine/threonine residues of the biotinylated substrate bovine α-casein in the presence of [γ-^33P]ATP. Detection of the radiolabeled phosphorylated product is achieved by binding to streptavidine-coated Flashplates. The biotin moieties of biotinylated casein bind with high affinity to the streptavidine. The radiolabeled biotinylated casein produced by the ALK1 kinase reaction is able to generate a […] signal when strepatavidine-mediated binding occurs to the scintillant-containing surface of the Flashplates due to the close proximity of the radiolabel and the scintillant. […] The signals obtained are therefore indicative of the ALK1 kinase activity. Measurement is performed in a Perkin-Elmer TopCount or Perkin-Elmer ViewLux instrument.
Enzyme: Purified human recombinant ALK1 (GST fused to ALK1 intracellular domain [His142-Gln503]) produced in-house, aliquots stored at −80° C.;
Diluted enzyme working solution: 2.5 ng/μl ALK1 (in assay buffer) freshly prepared and chilled on ice until use.
Substrate: biotinylated bovine α-casein. Unbiotinylated casein obtained from Sigma was biotinylated by standard procedures using N-hydroxysuccinimide (NHS) ester of biotin.
Substrate working solution: 0.83 μM ATP, 1.67 μM biotinylated a-casein, 7.4 nCi [γ-^33P]ATP/μl in assay buffer
Assay plates: 384-well plates, small volume, white, Greiner (# 784075)
Flashplates: Streptavidin-coated Flashplates, Perkin Elmer (384-well # SPM410A)
Assay buffer: 50 mM Tris/HCl pH 8.0, 1 mM MnCl2, 1 mM DTT, 0.01% NP40, 0.5× Complete EDTA-free
Stop solution: 33.3 μM ATP, 33.3 mM EDTA, 0.07% Triton X-100 in PBS
Saturating buffer for Flashplates: 100 μM ATP, 0.2% Triton X-100 in PBS
Sealing tape: Greiner (# 676080)
Protocol for small volume 5 μl assay (all steps are performed at 20° C., pipetted with CyBi-Well and Multidrop Micro): • 1. 50 nl or 250 nl compound in 100% DMSO • 2. addition of 3 μl substrate working solution with CyBi-Well pipettor • 3. addition of 2 μl enzyme working solution with Multidrop Micro incubation for 60 min at room temperature • 4. addition of 15 μl Stop solution with CyBi-Well pipettor • 5. transfer of 18 μl assay mixture to Flashplates** with CyBi-Well pipettor incubation for at least 3 h at room temperature or over night at 4° C. to allow binding to the streptavidine-coated Flashplates • 6. washing the Flashplates 3 times with 50 μl PBS without Ca++ and Mg++ • 7. sealing with sealing tape • 8. Measurement in Topcount (60 sec/well) **Saturation of Flashplates: The Flashplates are preincubated for at least 1 hour with 50 μl saturating buffer. Remove 18 μl from the 50 μl and transfer 18 μl of the assay mixture to the Flashplate.
Final concentrations, calculated for 5 μl reaction volume: ALK1 5 ng/well; 1 μM biotinylated α-casein; 0.5 μM ATP; 22 nCi/well [γ-^33P]ATP; 1 mM MnCl2; 1 mM DTT; 50 mM Tris-HCl; pH 8.0; 0.01% NP40; 0.5× Complete EDTA-free; 1% or 5% DMSO.
The data were normalised (enzyme reaction without inhibitor=0% inhibition, enzyme reaction in the presence of 10 mM EDTA=100% inhibition) and IC50 values were calculated by a 4 parameter fit using an in-house software.

Molecules are shown by their SMILES. pIC50: −log10 of the molar value. Bounds are passed on as bounds.

As a reminder, the pIC50 is the IC50 on a negative log10 scale, so that one unit is a factor of ten. In the case of `OCCNc1ccn2ncc(-c3ccc4c(c3)OCO4)c2n1` [Example 70, 2-(3-Benzo[1,3]dioxol-5-yl-pyrazolo[1,5-a]pyrimidin-5-ylamino)-ethanol], the negative logarithm of the IC50 (pIC50) is 5.00 to 6.00.

Turning to `COc1ccc(-c2cnn3ccc(NCCO)nc23)cc1OC` [Example 73, 2-[3-(3,4-Dimethoxy-phenyl)-pyrazolo[1,5-a]pyrimidin-5-ylamino]-ethanol], the pIC50 is above 6.00.

On to `OCCNc1ccn2ncc(-c3ccc(O)cc3)c2n1` [Example 74, 4-[5-(2-Hydroxy-ethylamino)-pyrazolo[1,5-a]pyrimidin-3-yl]-phenol], for which the pIC50 was 5.00 to 6.00.

`COc1cc(Nc2ccn3ncc(-c4cc(OC)c(OC)c(OC)c4)c3n2)cc(OC)c1OC` [Example 77, (3,4,5-Trimethoxy-phenyl)-[3-(3,4,5-trimethoxy-phenyl)-pyrazolo[1,5-a]pyrimidin-5-yl]-amine]: the negative-log IC50 (pIC50) was above 6.00.

For `COc1cc(Nc2ccn3ncc(-c4cccc(C(=O)NCCO)c4)c3n2)cc(OC)c1OC` [Example 79, N-(2-Hydroxy-ethyl)-3-[5-(3,4,5-trimethoxy-phenylamino)-pyrazolo[1,5-a]pyrimidin-3-yl]-benzamide], the pIC50 is 5.00 to 6.00.

Turning to `O=C(O)CCc1ccc(-c2cnn3ccc(Nc4ccc(O)cc4)nc23)cc1` [Example 83, 3-{4-[5-(4-Hydroxy-phenylamino)-pyrazolo[1,5-a]pyrimidin-3-yl]-phenyl}-propionic acid], the negative-log IC50 (pIC50) is 5.00 to 6.00.

Consider `COc1ccccc1-c1cnn2ccc(Nc3ccc(O)cc3)nc12` [Example 84, 4-[3-(2-Methoxy-phenyl)-pyrazolo[1,5-a]pyrimidin-5-ylamino]-phenol], for which the negative logarithm of the IC50 (pIC50) is 5.00 to 6.00.

Consider `N#Cc1ccc(-c2cnn3ccc(Nc4ccc(O)cc4)nc23)cc1` [Example 86, 4-[5-(4-Hydroxy-phenylamino)-pyrazolo[1,5-a]pyrimidin-3-yl]-benzonitrile], for which the pIC50 was 5.00 to 6.00.

For `COc1cncc(-c2cnn3ccc(Nc4ccc(O)cc4)nc23)c1` [Example 87, 4-[3-(5-Methoxy-pyridin-3-yl)-pyrazolo[1,5-a]pyrimidin-5-ylamino]-phenol], the pIC50 was above 6.00.

Consider `COc1ccc(Nc2ccn3ncc(-c4cc(OC)c(OC)c(OC)c4)c3n2)cn1` [Example 90, (6-Methoxy-pyridin-3-yl)-[3-(3,4,5-trimethoxy-phenyl)-pyrazolo[1,5-a]pyrimidin-5-yl]-amine], for which the pIC50 was above 6.00.

As to `COc1ccc(Nc2ccn3ncc(-c4cccc(C(=O)NCCO)c4)c3n2)cn1` [Example 92, N-(2-Hydroxy-ethyl)-3-[5-(6-methoxy-pyridin-3-ylamino)-pyrazolo[1,5-a]pyrimidin-3-yl]-benzamide], the negative logarithm of the IC50 (pIC50) was 5.00 to 6.00.

For the compound `COc1cc(-c2cnn3ccc(Nc4ccc(C(C)C)cc4)nc23)cc(OC)c1OC` [Example 97, (4-Isopropyl-phenyl)-[3-(3,4,5-trimethoxy-phenyl)-pyrazolo[1,5-a]pyrimidin-5-yl]-amine], the negative-log IC50 (pIC50) is above 6.00.

`COc1cc(-c2cnn3ccc(Nc4ccc(C)c(NS(C)(=O)=O)c4)nc23)cc(OC)c1OC` [Example 105, N-{2-Methyl-5-[3-(3,4,5-trimethoxy-phenyl)-pyrazolo[1,5-a]pyrimidin-5-ylamino]-phenyl}-methanesulfonamide]: the negative-log IC50 (pIC50) was above 6.00.

Regarding `COc1cncc(-c2cnn3ccc(Nc4ccc(C)c(NS(C)(=O)=O)c4)nc23)c1` [Example 107, N-{5-[3-(5-Methoxy-pyridin-3-yl)-pyrazolo[1,5-a]pyrimidin-5-ylamino]-2-methyl-phenyl}-methanesulfonamide], the negative-log IC50 (pIC50) was 5.00 to 6.00.

`FC(F)(F)Oc1cccc(-c2cnn3ccc(NCc4ccncc4)nc23)c1` [Example 113, Pyridin-4-ylmethyl-[3-(3-trifluoromethoxy-phenyl)-pyrazolo[1,5-a]pyrimidin-5-yl]-amine]: the negative-log IC50 (pIC50) is above 6.00.

As to `COc1cncc(-c2cnn3ccc(NC4CCC(O)CC4)nc23)c1` (stereo not shown) [Example 116, 4-[3-(5-Methoxy-pyridin-3-yl)-pyrazolo[1,5-a]pyrimidin-5-ylamino]-cyclohexanol], the negative logarithm of the IC50 (pIC50) is 5.00 to 6.00.

The record behind these values is US20080039455A1, “PYRAZOLOPYRIMIDINES AND SALTS THEREOF, PHARMACEUTICAL COMPOSITIONS COMPRISING SAME, METHODS OF PREPARING SAME AND USES OF SAME” (priority 2006, published 2008).
